Read-outs that look alike come from different tables or passages of the source.
Key:
[1] = test system: F227L + V106A double RT mutant HIV-1 strain; test: Anti-HIV-1 activity against F227L + V106A double mutant strain in MT-4 cells; assay type: cell-based
[2] = test system: L100I mutant HIV-1 strain; test: Anti-HIV-1 activity against L100I mutant strain in MT-4 cells; assay type: cell-based
WT HIV-1 (strain IIIB) = test: microbe, parasite or virus in culture; assay type: cell-based
Method: (§1) The newly synthesized compounds were evaluated for their potency and cytotoxicity against the WT HIV-1 (strain IIIB) in MT-4 cells using the MTT method. The biological evaluation results are represented as EC50 values (anti-HIV-1 activity), CC50 values (cytotoxicity), and SI values (selectivity index, CC50/EC50 ratio).

[3] = test system: Y188L mutant HIV-1 strain; test: Anti-HIV-1 activity against Y188L mutant strain in MT-4 cells; assay type: cell-based
[4] = test system: Y181C mutant HIV-1 strain; test: Anti-HIV-1 activity against Y181C mutant strain in MT-4 cells; assay type: cell-based
MT-4 cells = test: Cytotoxicity in uninfected MT-4 cells, MTT method; assay type: cell-based; conditions: uninfected MT-4 cells; viability reduced by 50%
Method: as §1

WT HIV-1 RT = WT HIV-1 RT (Human immunodeficiency virus type 1 group M subtype B, UniProt P03366); test: Enzymatic assay against WT HIV-1 RT; conditions: read-out: IC50 WT HIV-1 RT polymerase activity
Method: The enzymatic assay against WT HIV-1 RT was conducted for most compounds (Table 2).

[5] = test system: K103N + Y181C double RT mutant HIV-1 strain; test: Anti-HIV-1 activity against K103N + Y181C double mutant strain in MT-4 cells; assay type: cell-based
[6] = test system: E138K mutant HIV-1 strain; test: Anti-HIV-1 activity against E138K mutant strain in MT-4 cells; assay type: cell-based
[7] = test system: K103N mutant HIV-1 strain; test: Anti-HIV-1 activity against K103N mutant strain in MT-4 cells; assay type: cell-based
WT HIV-1 = conditions: cited from earlier work
[8] = cited from earlier work
[9] = Cytotoxicity in uninfected MT-4 cells, MTT method; assay type: cell-based; conditions: human
Method: as §1

[10] = MT-4 cells, read-out: EC50 F227L + V106A
[11] = MT-4 cells, read-out: EC50 L100I
[12] = MT-4 cells, protection against virus-induced cytopathicity by 50%, mean of at least three experiments, read-out: EC50 HIV-1 IIIB
[13] = MT-4 cells, read-out: EC50 Y188L
[14] = MT-4 cells, read-out: EC50 Y181C
[15] = MT-4 cells, read-out: EC50 K103N + Y181C
[16] = MT-4 cells, read-out: EC50 E138K
[17] = MT-4 cells, read-out: EC50 K103N
[18] = Human immunodeficiency virus 1, MT4, read-out: EC50 F227L + V106A
[19] = Human immunodeficiency virus 1, MT4, read-out: EC50 L100I
[20] = Human immunodeficiency virus 1, IIIB, MT4, MT-4 cells, protection against virus-induced cytopathicity by 50%, mean of at least three experiments, read-out: EC50 HIV-1 IIIB
[21] = Human immunodeficiency virus 1, MT4, read-out: EC50 Y188L
[22] = Human immunodeficiency virus 1, MT4, read-out: EC50 Y181C
[23] = Human immunodeficiency virus 1, MT4, read-out: EC50 K103N + Y181C
[24] = Human immunodeficiency virus 1, MT4, read-out: EC50 E138K
[25] = Human immunodeficiency virus 1, MT4, read-out: EC50 K103N
[26] = uninfected MT-4 cells, viability reduced by 50%, read-out: CC50
[27] = statement in the introduction, no reference given

SMILES | EC50 [1, 18] [nM] | EC50 [2, 19] [nM] | EC50 (WT HIV-1 (strain IIIB); [20]) [nM] | EC50 [3, 21] [nM] | EC50 [4, 22] [nM] | EC50 [5, 23] [nM] | EC50 [6, 24] [nM] | EC50 [7, 25] [nM] | CC50 [9, 26] [nM] | other results
N#Cc1ccc(Nc2nccc(C(C#N)c3ccc(-c4cccc(F)c4)cc3F)n2)cc1 (racemic) [Compound 10k, (±)-4-((4-(cyano(3,3′-difluoro-[1,1′-biphenyl]-4-yl)methyl)pyrimidin-2-yl)amino)benzonitrile] |  |  |  |  |  |  |  |  |  | EC50 [1, 10]: > 30700 nM; EC50 [2, 11]: 9290 ± 570 nM; EC50 (WT HIV-1 (strain IIIB); [12]): 560 ± 190 nM; EC50 [3, 13]: > 30700 nM; EC50 [4, 14]: 9150 ± 870 nM; CC50 (MT-4 cells): 30700 ± 1790 nM; IC50 (WT HIV-1 RT): 188 ± 172 nM; EC50 [5, 15]: > 30700 nM; EC50 [6, 16]: 3360 ± 400 nM; EC50 [7, 17]: > 30700 nM
N#Cc1ccc(Nc2nccc(C(C#N)c3ccc(-c4ccccc4Cl)cc3F)n2)cc1 (racemic) [Compound 10m, (±)-4-((4-((2′-chloro-3-fluoro-[1,1′-biphenyl]-4-yl)(cyano)methyl)pyrimidin-2-yl)amino)benzonitrile] |  |  |  |  |  |  |  |  |  | EC50 [1, 10]: > 22500 nM; EC50 [2, 11]: 5610 ± 1510 nM; EC50 (WT HIV-1 (strain IIIB); [12]): 280 ± 40 nM; EC50 [3, 13]: > 22500 nM; EC50 [4, 14]: 4530 ± 1470 nM; CC50 (MT-4 cells): 22500 ± 4700 nM; IC50 (WT HIV-1 RT): 74 ± 24 nM; EC50 [5, 15]: > 22500 nM; EC50 [6, 16]: 2430 ± 500 nM; EC50 [7, 17]: 5340 ± 930 nM
Cc1cc(C(C#N)c2ccccc2F)nc(Nc2ccc(C#N)cc2)n1 (stereo not shown) [Compound 1] |  |  |  |  |  |  |  |  |  | EC50 (WT HIV-1; read-out: EC50 anti-HIV potency): 1.8 nM
Cc1cc(-c2ccc(C#N)cc2)cc(C)c1Nc1ccnc(Nc2ccc(C#N)cc2)n1 [Compound 2] |  |  |  |  |  |  |  |  |  | EC50 (WT HIV-1; read-out: EC50 WT HIV-1): 1 ± 0.6 nM; CC50 ([8]; lead compound): 2100 nM
Nc1ccn([C@@H]2CS[C@H](CO)O2)c(=O)n1 [Compound 3TC, lamivudine, reference compound] | 2690 ± 870 | 1960 ± 290 | 7880 ± 3150 | 3420 ± 950 | 4740 ± 1310 | 5500 ± 1310 | 5060 ± 900 | 3980 ± 760 |  | CC50 [9]: > 87200 nM
Cc1cc(C#N)cc(C)c1Oc1nc(Nc2ccc(C#N)cc2)nc(N)c1Br [ETR, etravirine, reference compound] | 14 ± 5 | 8 ± 2 |  | 17 ± 6 | 17 ± 3 | 40 ± 10 | 8 ± 4 | 3 ± 1 | > 4600 | EC50 (WT HIV-1 (strain IIIB); Human immunodeficiency virus 1, MT4, read-out: EC50 HIV-1 IIIB): 4.5 ± 1 nM; CC50 [8, 27]: ~6000 nM
Cc1ccnc2c1NC(=O)c1cccnc1N2C1CC1 [NVP, nevirapine, reference compound] | ≥ 4280 | 980 ± 390 | 200 ± 100 | ≥ 4620 | 6070 ± 1550 | > 15000 | 200 ± 150 | 4700 ± 630 | > 15000 | 
Cc1cc(/C=C/C#N)cc(C)c1Nc1ccnc(Nc2ccc(C#N)cc2)n1 [RPV, rilpivirine, reference compound] | 44 ± 12 | 2 ± 1 | 1.6 ± 0.3 | 30 ± 9 | 3 ± 1 | 9 ± 2 | 3 ± 1 | 1 ± 0.2 | 5890 ± 310 | CC50 [8, 27]: ~6000 nM
